Source: ChEMBL document CHEMBL5143535, “Novel O-acylated (E)-3-aryl-6,7-dihydrobenzisoxazol-4(5H)-one oximes targeting HSP90-HER2 axis in breast cancer cells” (Bioorg Med Chem, 2022)
Calls of active or inactive are those of the source. No cut-off for these calls is given here.

Tests used:
[1] = test system: MCF7; assay: Antiproliferative activity against human MCF7 cells measured after 72 hrs by MTT assay; format: functional, cell-based; conditions: MCF7, 72 h
[2] = test system: MDA-MB-231; assay: Antiproliferative activity against human MDA-MB-231 cells measured after 72 hrs by MTT assay; format: functional, cell-based; conditions: MDA-MB-231, 72 h
[3] = test system: HCC1954; assay: Antiproliferative activity against human HCC1954 cells measured after 72 hrs by MTT assay; format: functional, cell-based; conditions: HCC1954, 72 h
[4] = test system: HCC1954; assay: Antiproliferative activity against human HCC1954 cells measured after 72 hrs by SRB assay; format: functional, cell-based; conditions: HCC1954, 72 h
[5] = biological target: T1, Heat shock protein HSP90 (Homo sapiens) (UniProt P07900+P08238); assay: Inhibition of HSP90 in human HCC1954 cells assessed as down regulation of EGFR expression at 10 to 20 uM measured after 72 hrs by Western blot analysis; format: cell-based; conditions: dose 10-20 µM
[6] = Cytotoxicity against human MCF-10A cells measured after 72 hrs by MTT assay; format: toxicity, cell-based
[7] = test system: HCC1954; assay: Cell cycle arrest in human HCC1954 cells assessed as decrease in cell accumulation at G1 phase at 10 to 20 uM measured after 48 hrs by propidium iodide staining based flow cytometry; format: functional; conditions: dose 10-20 µM
[8] = biological target: T1, Heat shock protein HSP90 (Homo sapiens); assay: Inhibition of HSP90 in human HCC1954 cells assessed as down regulation of HER2 expression at 10 to 20 uM measured after 72 hrs by Western blot analysis; format: cell-based; conditions: dose 10-20 µM
[9] = biological target: T1, Heat shock protein HSP90 (Homo sapiens); assay: Inhibition of HSP90 in human HCC1954 cells assessed as reduction in AKT phosphorylation at 10 to 20 uM measured after 72 hrs by Western blot analysis; format: cell-based; conditions: dose 10-20 µM
[10] = test system: HCC1954; assay: Induction of apoptosis in human HCC1954 cells assessed as increase in cleaved caspase-9 expression at 10 to 20 uM measured after 72 hrs by Western blot analysis; format: functional, cell-based; conditions: dose 10-20 µM
[11] = test system: HCC1954; assay: Cell cycle arrest in human HCC1954 cells assessed as cell accumulation at sub-G1 phase at 20 uM measured after 48 hrs by propidium iodide staining based flow cytometry relative to control; format: functional
[12] = biological target: T1, Heat shock protein HSP90 (Homo sapiens); assay: Inhibition of HSP90 in human HCC1954 cells assessed as down regulation of ERK1/2 expression at 10 to 20 uM measured after 72 hrs by Western blot analysis; format: cell-based; conditions: dose 10-20 µM
[13] = test system: HCC1954; assay: Induction of apoptosis in human HCC1954 cells assessed as reduction in NF-kappaB expression at 10 to 20 uM measured after 72 hrs by Western blot analysis; format: functional, cell-based; conditions: dose 10-20 µM
[14] = test system: HCC1954; assay: Induction of apoptosis in human HCC1954 cells assessed as increase in cleaved PARP expression at 10 to 20 uM measured after 72 hrs by Western blot analysis; format: functional, cell-based; conditions: dose 10-20 µM
[15] = Effect on HSP70 expression in human HCC1954 cells at 10 to 20 uM measured after 72 hrs by Western blot analysis; format: toxicity, cell-based; conditions: hcc1954, 72 h, dose 10-20 µM
[16] = test system: HCC1954; assay: Cell cycle arrest in human HCC1954 cells assessed as increase in cell accumulation at sub-G1 phase measured after 48 hrs by propidium iodide staining based flow cytometry; format: functional; conditions: dose 10-20 µM, DDE = dose-dependent effect
[17] = biological target: T1, Heat shock protein HSP90 (Homo sapiens); assay: Inhibition of HSP90 in human HCC1954 cells assessed as down regulation of AKT expression at 10 to 20 uM measured after 72 hrs by Western blot analysis; format: cell-based; conditions: dose 10-20 µM

Compound | IC50 [1] | IC50 [2] | IC50 [3] | other results
COc1cccc(C(=O)Nc2cccc(C(=O)O/N=C3\CCCc4onc(-c5ccc(OC)c(OC)c5)c43)c2)c1 | > 25 µM | > 25 µM | > 25 µM | 
Nc1cccc(C(=O)Nc2cccc(C(=O)O/N=C3\CCCc4onc(-c5ccc(F)cc5)c43)c2)c1 | > 25 µM | > 25 µM | > 25 µM | 
O=C(Nc1cccc(C(=O)O/N=C2\CCCc3noc(-c4ccc(F)cc4)c32)c1)c1cccc(F)c1 | > 25 µM | > 25 µM | > 25 µM | 
COc1ccc(-c2noc3c2/C(=N/OC(=O)c2cccc(NC(=O)c4cccc(N)c4)c2)CCC3)cc1OC | 25 µM | > 25 µM | > 25 µM | 
CC(=O)Nc1ccccc1C(=O)O/N=C1\CCCc2noc(-c3ccc(F)cc3)c21 | > 25 µM | > 25 µM | > 25 µM | 
O/N=C1\CCCc2onc(-c3cccc(F)c3)c21 | > 25 µM | > 25 µM | > 25 µM | 
O=C(Nc1cccc(C(=O)O/N=C2\CCCc3onc(-c4cccc(F)c4)c32)c1)c1cccc(F)c1 | 4.7 µM | 8.7 µM | > 25 µM | 
COc1cc(/C=C(\C#N)C(N)=O)cc(CSc2nc3ccccc3s2)c1O |  |  |  | IC50 [4]: 30 µM
CC(C)(C)OC(=O)Nc1cccc(C(=O)Nc2cccc(C(=O)O/N=C3\CCCc4onc(-c5ccc(F)cc5)c43)c2)c1 | > 25 µM | > 25 µM | > 25 µM | 
O=C(Nc1ccccc1C(=O)O/N=C1\CCCc2noc(-c3ccc(F)cc3)c21)c1ccccc1F | > 25 µM | > 25 µM | > 25 µM | 
Nc1cccc(C(=O)Nc2cccc(C(=O)O/N=C3\CCCc4noc(-c5ccc(F)cc5)c43)c2)c1 | > 25 µM | > 25 µM | > 25 µM | 
O=C(O)c1cccc(NC(=O)c2cccc(F)c2)c1 | > 25 µM | > 25 µM | > 25 µM | 
COc1ccc(-c2noc3c2/C(=N/OC(=O)c2cccc(NC(=O)c4cccc(F)c4)c2)CCC3)cc1OC | > 25 µM | > 25 µM | > 25 µM | 
O=C(Nc1cccc(C(=O)O/N=C2\CCCc3onc(-c4ccccc4F)c32)c1)c1cccc(F)c1 | > 25 µM | 6.2 µM | > 25 µM | 
CC1(C)C/C(=N\OC(=O)c2ccccc2NC(=O)c2ccccc2F)c2c(-c3ccc(F)cc3)noc2C1 | > 25 µM | > 25 µM | > 25 µM | 
O=C(Nc1ccccc1C(=O)O/N=C1\CCCc2onc(-c3ccc(F)cc3)c21)c1cccc(F)c1 | > 25 µM | > 25 µM | > 25 µM | 

More lines, main results first:

IC50 [1] | IC50 [2] | IC50 [3] | Compound | other results
5.2 µM | > 25 µM | > 25 µM | CC1(C)C/C(=N\OC(=O)c2cccc(NC(=O)c3cccc(F)c3)c2)c2c(-c3ccc(F)cc3)noc2C1 | 
> 25 µM | > 25 µM | > 25 µM | COc1ccc(-c2noc3c2/C(=N/OC(=O)c2cccc(NC(=O)c4cccc(F)c4)c2)CC(C)(C)C3)cc1OC | 
> 25 µM | > 25 µM | > 25 µM | COc1ccc(-c2onc3c2/C(=N/OC(=O)c2cccc(NC(=O)c4cccc(F)c4)c2)CC(C)(C)C3)cc1OC | 
> 25 µM | 9.3 µM | > 25 µM | O=C(Nc1cccc(C(=O)O/N=C2\CCCc3noc(-c4cccc(F)c4)c32)c1)c1cccc(F)c1 | 
> 25 µM | > 25 µM | > 25 µM | CC1(C)C/C(=N\OC(=O)c2cccc(NC(=O)c3cccc(F)c3)c2)c2c(noc2-c2cccc(F)c2)C1 | 
25 µM | > 25 µM | > 25 µM | CC1(C)C/C(=N\OC(=O)c2cccc(NC(=O)c3cccc(F)c3)c2)c2c(-c3cccc(F)c3)noc2C1 | 
6.2 µM | > 25 µM | 6 µM | COc1cc(-c2onc3c2/C(=N/OC(=O)c2cccc(NC(=O)c4cccc(F)c4)c2)CC(C)(C)C3)ccc1O | inhibition [5]: Active; IC50 at 72 h [6]: > 30 µM; Activity [7]: Active; inhibition [8]: Active; inhibition [9]: Active; Activity [10]: Active; IC50 [4]: 6 µM; Activity [11]: 50%; inhibition [12]: Active; Activity [13]: Active; Activity [14]: Active; Activity [15]: Non-Toxic; Activity [16]: Dde; inhibition [17]: Active
